These results are taken from US8901301B2, “Pyrrolo[2,3-]pyridine kinase inhibitors” (Plexxikon Inc., priority 2009, dated 2014).

In test [1] the target is Trk (Homo sapiens, UniProt P04629). Put plainly: Biochemical inhibitory activity, other protein kinases: Trk. The note with it: listing of the kinase means IC50 >1 μM.
For test [2], the target named is Brk (Homo sapiens, UniProt Q13882). Put plainly: Biochemical inhibitory activity, other protein kinases: Brk. The note with it: listing of the kinase means IC50 <1 μM.
Chain of Brk (Q13882 whole entry, species assumed): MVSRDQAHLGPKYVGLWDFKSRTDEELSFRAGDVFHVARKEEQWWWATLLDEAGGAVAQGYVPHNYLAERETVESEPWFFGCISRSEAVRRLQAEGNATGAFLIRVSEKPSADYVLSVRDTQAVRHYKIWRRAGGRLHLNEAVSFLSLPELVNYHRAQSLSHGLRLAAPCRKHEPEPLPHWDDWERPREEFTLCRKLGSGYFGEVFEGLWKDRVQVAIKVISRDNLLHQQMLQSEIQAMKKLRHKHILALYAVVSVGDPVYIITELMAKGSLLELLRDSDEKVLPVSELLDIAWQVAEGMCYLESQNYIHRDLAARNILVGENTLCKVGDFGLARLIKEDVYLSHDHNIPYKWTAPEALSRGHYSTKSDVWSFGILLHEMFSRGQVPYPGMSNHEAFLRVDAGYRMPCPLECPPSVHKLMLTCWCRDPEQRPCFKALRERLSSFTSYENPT
In test [3] the target is PI3Kδ (Homo sapiens, UniProt O00329). The test can be described thus: Biochemical inhibitory activity, other protein kinases: PI3Kδ. As to conditions: listing of the kinase means IC50 >1 μM.
Chain of PI3Kδ (O00329 whole entry, species assumed): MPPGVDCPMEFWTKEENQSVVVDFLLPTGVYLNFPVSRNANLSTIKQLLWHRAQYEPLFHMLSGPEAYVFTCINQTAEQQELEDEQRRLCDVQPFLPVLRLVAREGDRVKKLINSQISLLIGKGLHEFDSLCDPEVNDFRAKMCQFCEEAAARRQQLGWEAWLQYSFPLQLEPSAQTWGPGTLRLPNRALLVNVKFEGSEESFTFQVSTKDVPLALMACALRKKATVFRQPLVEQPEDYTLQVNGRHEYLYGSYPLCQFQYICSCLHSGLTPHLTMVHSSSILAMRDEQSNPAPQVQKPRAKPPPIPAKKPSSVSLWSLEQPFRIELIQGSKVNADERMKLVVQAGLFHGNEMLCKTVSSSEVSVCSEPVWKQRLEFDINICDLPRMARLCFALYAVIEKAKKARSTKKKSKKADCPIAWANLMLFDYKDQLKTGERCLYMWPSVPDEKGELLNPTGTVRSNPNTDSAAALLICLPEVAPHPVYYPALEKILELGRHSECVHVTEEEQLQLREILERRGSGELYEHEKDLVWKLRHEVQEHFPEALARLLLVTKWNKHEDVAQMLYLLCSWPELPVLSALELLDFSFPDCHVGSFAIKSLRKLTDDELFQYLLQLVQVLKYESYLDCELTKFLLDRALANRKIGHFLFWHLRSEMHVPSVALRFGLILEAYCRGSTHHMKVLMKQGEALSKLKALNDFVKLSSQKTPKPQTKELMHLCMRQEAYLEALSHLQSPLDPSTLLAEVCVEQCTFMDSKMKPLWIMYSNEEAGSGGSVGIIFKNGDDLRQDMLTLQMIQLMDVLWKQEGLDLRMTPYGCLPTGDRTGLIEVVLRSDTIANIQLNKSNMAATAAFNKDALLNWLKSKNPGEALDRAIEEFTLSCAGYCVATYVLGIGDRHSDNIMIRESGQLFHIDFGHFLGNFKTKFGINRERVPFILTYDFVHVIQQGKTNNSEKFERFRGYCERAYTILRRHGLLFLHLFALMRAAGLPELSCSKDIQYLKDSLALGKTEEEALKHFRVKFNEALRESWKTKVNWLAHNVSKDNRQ
Chain of PI3Kδ (P27986 whole entry partner, species assumed): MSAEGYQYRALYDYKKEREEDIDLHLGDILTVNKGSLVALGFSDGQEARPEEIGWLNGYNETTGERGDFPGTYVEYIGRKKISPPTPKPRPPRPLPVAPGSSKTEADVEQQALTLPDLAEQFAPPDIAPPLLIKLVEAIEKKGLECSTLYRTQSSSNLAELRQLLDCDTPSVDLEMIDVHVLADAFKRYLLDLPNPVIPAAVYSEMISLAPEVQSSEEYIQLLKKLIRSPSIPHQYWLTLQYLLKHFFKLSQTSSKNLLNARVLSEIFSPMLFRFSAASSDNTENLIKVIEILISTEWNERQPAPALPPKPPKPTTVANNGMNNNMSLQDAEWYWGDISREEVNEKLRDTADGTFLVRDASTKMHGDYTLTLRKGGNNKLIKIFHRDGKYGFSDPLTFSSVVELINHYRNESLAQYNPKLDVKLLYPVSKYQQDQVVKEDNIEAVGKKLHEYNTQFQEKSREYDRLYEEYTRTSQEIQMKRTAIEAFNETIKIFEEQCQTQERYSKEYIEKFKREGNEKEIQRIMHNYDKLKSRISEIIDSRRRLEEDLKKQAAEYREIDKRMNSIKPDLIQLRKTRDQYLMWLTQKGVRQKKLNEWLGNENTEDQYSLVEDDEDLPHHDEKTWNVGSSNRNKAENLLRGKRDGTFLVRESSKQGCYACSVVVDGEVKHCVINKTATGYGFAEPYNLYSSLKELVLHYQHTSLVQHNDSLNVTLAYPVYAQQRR
The target in test [4] is PI3Kγ (Homo sapiens, UniProt P48736). The test can be described thus: Biochemical inhibitory activity, other protein kinases: PI3Kγ. As to conditions: listing of the kinase means IC50 >1 μM.
Test [5] has as its target PI3Kα (Homo sapiens, UniProt P42336). The test can be described thus: Biochemical inhibitory activity, other protein kinases: PI3Kα. The note with it: listing of the kinase means IC50 >1 μM.
The target in test [6] is T1, Itk (Homo sapiens, UniProt Q08881).
T1 sequence (Q08881 1-620): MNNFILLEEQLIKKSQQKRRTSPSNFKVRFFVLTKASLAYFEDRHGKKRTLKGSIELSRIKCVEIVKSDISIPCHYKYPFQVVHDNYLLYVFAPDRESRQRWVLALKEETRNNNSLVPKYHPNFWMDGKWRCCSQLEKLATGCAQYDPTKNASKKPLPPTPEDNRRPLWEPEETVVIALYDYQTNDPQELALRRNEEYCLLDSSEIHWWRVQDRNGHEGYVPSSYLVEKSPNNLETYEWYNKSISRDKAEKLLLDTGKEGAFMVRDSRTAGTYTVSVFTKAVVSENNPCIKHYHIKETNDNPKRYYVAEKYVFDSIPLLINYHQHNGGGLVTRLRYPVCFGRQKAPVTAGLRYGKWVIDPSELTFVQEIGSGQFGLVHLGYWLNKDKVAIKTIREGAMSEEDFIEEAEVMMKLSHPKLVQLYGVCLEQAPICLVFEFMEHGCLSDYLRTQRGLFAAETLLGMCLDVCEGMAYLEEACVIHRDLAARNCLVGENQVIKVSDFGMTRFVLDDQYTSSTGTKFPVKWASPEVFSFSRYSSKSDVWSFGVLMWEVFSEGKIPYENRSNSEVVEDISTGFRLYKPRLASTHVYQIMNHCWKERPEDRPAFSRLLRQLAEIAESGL
The test can be described thus: Biochemical inhibitory activity, other protein kinases: Itk. The note with it: listing of the kinase means IC50 >1 μM.

The target in test [7] is MAPKAPK2 (Homo sapiens, UniProt P49137). Put plainly: Biochemical inhibitory activity, other protein kinases: MAPKAPK2. As to conditions: listing of the kinase means IC50 >1 μM.
Chain of MAPKAPK2 (P49137 whole entry, species assumed): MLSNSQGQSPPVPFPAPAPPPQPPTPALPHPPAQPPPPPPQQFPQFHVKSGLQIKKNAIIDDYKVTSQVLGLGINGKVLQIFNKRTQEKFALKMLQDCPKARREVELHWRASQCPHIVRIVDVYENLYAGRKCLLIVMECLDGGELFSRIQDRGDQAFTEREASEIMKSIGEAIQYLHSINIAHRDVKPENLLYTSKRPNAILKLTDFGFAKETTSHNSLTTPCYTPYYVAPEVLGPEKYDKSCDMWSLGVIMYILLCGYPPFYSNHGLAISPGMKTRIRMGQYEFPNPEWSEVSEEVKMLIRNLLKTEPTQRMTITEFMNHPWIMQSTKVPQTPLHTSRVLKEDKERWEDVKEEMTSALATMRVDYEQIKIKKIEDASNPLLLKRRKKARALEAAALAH
Test [8] deals with Jnk1 (Homo sapiens, UniProt P45983). Put plainly: Biochemical inhibitory activity, other protein kinases: Jnk1. As to conditions: listing of the kinase means IC50 >1 μM.
Chain of Jnk1 (P45983 whole entry, species assumed): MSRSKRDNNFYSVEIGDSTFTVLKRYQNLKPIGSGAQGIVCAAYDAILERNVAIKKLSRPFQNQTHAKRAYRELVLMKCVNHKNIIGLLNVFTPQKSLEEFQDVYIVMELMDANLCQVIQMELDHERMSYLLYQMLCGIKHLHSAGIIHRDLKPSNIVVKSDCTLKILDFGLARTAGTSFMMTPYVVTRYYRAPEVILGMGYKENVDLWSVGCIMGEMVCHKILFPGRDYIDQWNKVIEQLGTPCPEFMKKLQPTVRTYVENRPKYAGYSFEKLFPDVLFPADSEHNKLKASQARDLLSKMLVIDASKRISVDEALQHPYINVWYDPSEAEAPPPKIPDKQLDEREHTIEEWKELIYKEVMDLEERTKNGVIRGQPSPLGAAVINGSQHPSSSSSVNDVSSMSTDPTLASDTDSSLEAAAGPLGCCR
Test [9] has as its target mTor (Homo sapiens, UniProt P42345). The test can be described thus: Biochemical inhibitory activity, other protein kinases: mTor. The note with it: listing of the kinase means IC50 >1 μM.
The target in test [10] is Flt1 (Homo sapiens, UniProt P17948). The test can be described thus: Biochemical inhibitory activity, other protein kinases: Flt1. The note with it: listing of the kinase means IC50 >1 μM.
The target in test [11] is TrkA (Homo sapiens, UniProt P04629). The test can be described thus: Biochemical inhibitory activity, other protein kinases: TrkA. As to conditions: listing of the kinase means IC50 >1 μM.
Chain of TrkA (P04629 33-796, species assumed): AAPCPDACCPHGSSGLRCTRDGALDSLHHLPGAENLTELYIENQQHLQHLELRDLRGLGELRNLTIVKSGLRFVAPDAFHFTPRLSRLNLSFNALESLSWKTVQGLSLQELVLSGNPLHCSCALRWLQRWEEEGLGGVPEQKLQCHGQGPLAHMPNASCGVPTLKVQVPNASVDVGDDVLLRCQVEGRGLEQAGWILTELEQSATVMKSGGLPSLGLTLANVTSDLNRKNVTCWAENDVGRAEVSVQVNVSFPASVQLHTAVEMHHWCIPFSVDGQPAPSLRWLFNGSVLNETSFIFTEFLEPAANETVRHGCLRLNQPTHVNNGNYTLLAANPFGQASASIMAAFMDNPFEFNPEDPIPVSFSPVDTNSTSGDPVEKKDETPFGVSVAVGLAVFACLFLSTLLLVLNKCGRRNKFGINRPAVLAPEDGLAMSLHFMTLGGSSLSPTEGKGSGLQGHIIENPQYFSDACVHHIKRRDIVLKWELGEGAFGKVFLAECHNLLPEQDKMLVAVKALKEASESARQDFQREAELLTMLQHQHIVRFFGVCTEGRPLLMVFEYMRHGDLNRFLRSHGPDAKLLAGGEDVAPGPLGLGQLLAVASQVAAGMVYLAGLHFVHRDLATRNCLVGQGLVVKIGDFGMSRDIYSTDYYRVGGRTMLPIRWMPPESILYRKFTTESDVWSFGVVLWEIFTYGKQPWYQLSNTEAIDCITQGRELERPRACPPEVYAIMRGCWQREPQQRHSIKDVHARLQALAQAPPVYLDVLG
For test [12], the target named is Ack1 (Homo sapiens, UniProt Q07912). Put plainly: Biochemical inhibitory activity, other protein kinases: Ack1. As to conditions: listing of the kinase means IC50 <1 μM.
Chain of Ack1 (Q07912 whole entry, species assumed): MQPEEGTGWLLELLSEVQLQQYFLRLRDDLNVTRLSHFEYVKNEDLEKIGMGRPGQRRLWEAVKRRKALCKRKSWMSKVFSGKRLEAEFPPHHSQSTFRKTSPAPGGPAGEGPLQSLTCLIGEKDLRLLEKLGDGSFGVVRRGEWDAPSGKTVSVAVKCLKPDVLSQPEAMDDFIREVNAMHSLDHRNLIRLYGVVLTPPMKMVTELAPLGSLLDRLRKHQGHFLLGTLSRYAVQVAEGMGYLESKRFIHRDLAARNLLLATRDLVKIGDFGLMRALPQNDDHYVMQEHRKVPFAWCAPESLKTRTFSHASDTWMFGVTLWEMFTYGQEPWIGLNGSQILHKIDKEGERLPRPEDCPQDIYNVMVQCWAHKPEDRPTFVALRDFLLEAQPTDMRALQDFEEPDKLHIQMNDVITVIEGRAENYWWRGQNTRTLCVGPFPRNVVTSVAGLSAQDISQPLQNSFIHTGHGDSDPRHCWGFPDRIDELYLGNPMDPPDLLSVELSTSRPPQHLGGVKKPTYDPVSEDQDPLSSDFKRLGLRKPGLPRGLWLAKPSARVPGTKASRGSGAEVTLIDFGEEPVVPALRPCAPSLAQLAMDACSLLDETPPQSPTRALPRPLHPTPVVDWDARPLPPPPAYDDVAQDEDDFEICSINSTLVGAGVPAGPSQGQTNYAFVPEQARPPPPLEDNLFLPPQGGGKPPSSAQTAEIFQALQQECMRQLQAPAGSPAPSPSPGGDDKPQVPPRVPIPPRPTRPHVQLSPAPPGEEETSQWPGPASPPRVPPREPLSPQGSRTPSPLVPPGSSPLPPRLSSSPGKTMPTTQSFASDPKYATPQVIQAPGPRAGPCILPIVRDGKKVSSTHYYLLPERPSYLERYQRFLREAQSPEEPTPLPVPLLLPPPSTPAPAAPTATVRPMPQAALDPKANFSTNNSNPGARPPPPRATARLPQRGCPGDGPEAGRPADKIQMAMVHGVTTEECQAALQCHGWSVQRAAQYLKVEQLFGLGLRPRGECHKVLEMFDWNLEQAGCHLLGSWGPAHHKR

Chain of Trk (P04629 33-796, species assumed): as the sequence (P04629 33-796, species assumed) above

On to `CCCS(=O)(=O)Nc1ccc(F)c(C(=O)c2c[nH]c3ncc(-c4cnc(OC)nc4)cc23)c1F` [Compound P-0001, propane-1-sulfonic acid {2,4-difluoro-3-[5-(2-methoxy-pyrimidin-5-yl)-1H-pyrrolo[2,3-b]pyridine-3-carbonyl]-phenyl}-amide], for which the “Kinase having IC50 of >1 μM” value is recorded as “Trk” in test [1]; “PI3Kδ” in test [3]; “PI3Kγ” in test [4]; “PI3Kα” in [5]; “Itk” in test [6]; “MAPKAPK2” in [7]. Also, the figures for the “Kinase having IC50 of >1 μM” value in [8] and in [9] were “Jnk1” and “mTor”, respectively. In [2], the “Kinase having IC50 of <1 μM” value is “Brk”.
On to `CCCS(=O)(=O)Nc1ccc(F)c(C(=O)c2c[nH]c3ncc(C#N)cc23)c1F` [Compound P-0002, propane-1-sulfonic acid [3-(5-cyano-1H-pyrrolo[2,3-b]pyridine-3-carbonyl)-2,4-difluoro-phenyl]-amide], for which the “Kinase having IC50 of >1 μM” value is given as “Flt1” in test [10], “TrkA” in test [11], “Itk” in test [6] and “MAPKAPK2” in test [7]. Moreover, the “Kinase having IC50 of <1 μM” value in test [2] is recorded as “Brk”; in [12], “Ack1”.
Turning to `CCCS(=O)(=O)Nc1cccc(C(=O)c2c[nH]c3ncc(C#N)cc23)c1F` [Compound P-0003, propane-1-sulfonic acid [3-(5-cyano-1H-pyrrolo[2,3-b]pyridine-3-carbonyl)-2-fluoro-phenyl]-amide], the figures for the “Kinase having IC50 of >1 μM” value in [11] and in test [7] were “TrkA” and “MAPKAPK2”, respectively.
As to `N#Cc1cnc2[nH]cc(C(=O)c3c(F)ccc(NS(=O)(=O)c4cc(F)ccc4F)c3F)c2c1` [Compound P-0004, N-[3-(5-cyano-1H-pyrrolo[2,3-b]pyridine-3-carbonyl)-2,4-difluoro-phenyl]-2,5-difluoro-benzenesulfonamide], the “Kinase having IC50 of >1 μM” value is listed as “Itk” in test [6] and “Jnk1” in [8].
On the same counts, the results for `N#Cc1cnc2[nH]cc(C(=O)c3c(F)ccc(NS(=O)(=O)c4cccc(F)c4)c3F)c2c1` [Compound P-0005, N-[3-(5-cyano-1H-pyrrolo[2,3-b]pyridine-3-carbonyl)-2,4-difluoro-phenyl]-3-fluoro-benzenesulfonamide] are “Itk” and “Jnk1”.
Turning to `N#Cc1cnc2[nH]cc(C(=O)c3c(F)ccc(NS(=O)(=O)N4CCCC4)c3F)c2c1` [Compound P-0006, pyrrolidine-1-sulfonic acid [3-(5-cyano-1H-pyrrolo[2,3-b]pyridine-3-carbonyl)-2,4-difluoro-phenyl]-amide], the “Kinase having IC50 of >1 μM” value in [7] is reported as “MAPKAPK2”.
In the case of `CN(C)S(=O)(=O)Nc1ccc(F)c(C(=O)c2c[nH]c3ncc(C#N)cc23)c1F` [Compound P-0007, N,N-dimethylamino-sulfonic acid [3-(5-cyano-1H-pyrrolo[2,3-b]pyridine-3-carbonyl)-2,4-difluoro-phenyl]-amide], the figures for the “Kinase having IC50 of >1 μM” value in [6], in test [7] and in test [8] were “Itk”, “MAPKAPK2” and “Jnk1”, respectively.
